Data as given in US10457682B2, “Small molecules that bind MR1” (OREGON HEALTH & SCIENCE UNIVERSITY, priority 2016, dated 2019).
“Also recorded” adds a separate entry of the source. Read-outs that look alike come from different tables or passages of the source.

Key:
hpMR1 = hpMR1 (UniProt C1ITJ8+Q95460); settings: tandem mass spectrometry; hpMR1-bac, +EC, +MS
Method: MR1 expressed in cells infected with two distinct microbes recognized by MR1Ts, E. coli and M. smegmatis, were analyzed by flow cytometry, ELISPOT assay, and mass spectrometry.
The presence and relative abundance of known MR1T ligands was assessed.
To further explore the MR1 ligandome, all ligands eluted from hpMR1-bac, +EC, and +MS were evaluated using LCMS. Fold increase was calculated for each ion/ligand in either hpMR1+MS or +EC compared to all other samples and plotted on volcano plots (FIG. 2A).
Global Natural Products Social Molecular Networking (GNPS) was used to assist in the identification of these novel ligands.

MR1T cell clone D426 G11 [1] = settings: literature (Harriff 2016; Eckle 2014); cited from earlier work
MR1 = MR1 (Homo sapiens, UniProt Q95460); test: Binding of small molecule ligands to MR1
Source text: 6,7-dimethyl-5-deazalumazine (DZ) is a synthetic compound designed based on the structure and activity of FO and other known mycobacterial ligands for MR1. […] Photolumazines I and III are small molecule secondary metabolites produced by bacteria.
Binding can be detected by any procedure known to one skilled in the art, such as by physical or functional properties including cellular properties. Binding can also be detected by visualization of a label (such as a fluorescent label) conjugated to one of the molecules.
Disclosed herein is work reflecting the diversity of ligands bound by MR1 in the context of infection with different microbes. MR1 ligand diversity is detected by MR1T cells, as MR1 tetramers loaded with multiple bacterial ligands were broadly recognized by MR1T clones with distinct TCR arrangements and by PBMC from a panel of donors. […] While previous work has only identified a few riboflavin metabolites as activating MR1Ts, our results establishes that MR1 samples the broader microbial metabolome similar to how conventional MHC molecules sample the microbial peptidome and CD1 molecules sample microbial lipids and glycolipids.

MR1T clones = test: Ability of synthetic ligands to stimulate MR1T clones; assay type: cell-based, human
Method: (§1) To determine whether riboflavin, FO, PLI, and PLIII were antigens, they were tested for their ability to stimulate MR1T clones. […] (FIGS. 4A, 4B). […] To determine whether riboflavin or FO are also antagonistic, antigen presenting cells (APC) were pre-loaded with riboflavin or FO and then tested for their ability to present antigens from M. smegmatis supernatant (Msm-sup) to MR1Ts. […] PLI and PLIII were each tested for their ability to stimulate two MR1T clones with distinct TCRs.
(§2) FIGS. 4A, 4B, 4C, 4D: MR1T cell responses to synthetic ligands. A-B) MR1T cell clone D426 G11 responses to BEAS-2B cells incubated with FO (A, 10 μM, 30 μM, or 100 μM), or Riboflavin (B, 7.8 μM-500 μM) prior to addition of M. smegmatis supernatant (Msm-s) or PHA. C) MR1 cell clone D481 C7 responses to DC incubated with synthetic PLI, PLIII, RL-6,7,-diMe (DMRL), or RL-6-Me-7-OH (HMRL), at 1.56μM-200μM, or M. smegmatis (Msm), M. smegmatis supernatant (Msm-s), or PHA. D) Panel of MR1T cell clones or an HLA-B45-restricted T cell clone (D466 A10) incubated with 100 μM PLI, PLIII, DMRL, or HMRL.

MR1T cell clone D426 G11 [2] = test: Blocking of MR1T clone response to M. smegmatis supernatant after pre-loading antigen presenting cells; assay type: cell-based, human; settings: for blocking of MR1T clone response to Msm-sup (MAIT cell activation): APC (BEAS-2B) pre-loaded with FO 10-100 μM or riboflavin 7.8-500 μM, then M. smegmatis supernatant
Method: as §1, §2

MR1T clone D426_G11 = test: MR1T cell clone D426_G11 responses to synthetic ligands; assay type: cell-based, human; settings: FIG. 4C bottom
Method: as §1, §2

[3] = tested on: D481_F12 and D481_A9 MR1T cell clones; test: D481_F12 and D481_A9 MR1T cell clone responses to synthetic ligands; assay type: cell-based, human; settings: 100 μM ligand (FIG. 4D)
Method: (§3) Given the striking differences in response between D481_C7 and D426_G11, we postulated that discrete TCR usage could be associated with ligand discrimination. To test this, an expanded panel of TCR diverse MR1T clones was tested for their ability to recognize each antigen. Every clone responded robustly to APC infected with M. smegmatis (FIG. 4D). […] In contrast, the D481_C7 responded to RL-6-Me-7-OH as well as RL-6,7-diMe, PLI, and PLIII. Because TRAV1-2 negative cells were stained with the hpMR1+EC tetramer, we also tested the ability of a recently described TRAV12-2 MR1T cell clone to respond to these ligands.
as §2

[4] = tested on: D462_E4 TRAV12-2 MR1T cell clone; test: TRAV12-2 MR1T cell clone D462_E4 responses to synthetic ligands; assay type: cell-based, human; settings: 100 μM ligand (FIG. 4D)
Method: as §3, §2

MR1T clone D481_C7 = test: MR1T cell clone D481 C7 responses to DC incubated with synthetic ligands; assay type: cell-based, human; settings: for response of clone D481_C7: 100 μM ligand (FIG. 4D); for IFN-γ response of clone D481_C7: DC incubated with ligand at 1.56 μM-200 μM (FIG. 4C top)
Method: as §1, §3, §2

Chain of hpMR1 (Q95460 23-201 limits assumed): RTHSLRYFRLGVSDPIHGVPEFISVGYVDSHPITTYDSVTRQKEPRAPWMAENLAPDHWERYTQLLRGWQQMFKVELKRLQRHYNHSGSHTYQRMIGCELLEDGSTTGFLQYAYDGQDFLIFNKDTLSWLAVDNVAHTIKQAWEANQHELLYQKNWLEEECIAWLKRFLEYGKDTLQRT
Chain of hpMR1 (C1ITJ8 198-289 limits assumed): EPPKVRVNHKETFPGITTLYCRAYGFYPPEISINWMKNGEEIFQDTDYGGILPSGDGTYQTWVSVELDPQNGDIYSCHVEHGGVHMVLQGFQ
Chain of MR1 (Q95460 23-341): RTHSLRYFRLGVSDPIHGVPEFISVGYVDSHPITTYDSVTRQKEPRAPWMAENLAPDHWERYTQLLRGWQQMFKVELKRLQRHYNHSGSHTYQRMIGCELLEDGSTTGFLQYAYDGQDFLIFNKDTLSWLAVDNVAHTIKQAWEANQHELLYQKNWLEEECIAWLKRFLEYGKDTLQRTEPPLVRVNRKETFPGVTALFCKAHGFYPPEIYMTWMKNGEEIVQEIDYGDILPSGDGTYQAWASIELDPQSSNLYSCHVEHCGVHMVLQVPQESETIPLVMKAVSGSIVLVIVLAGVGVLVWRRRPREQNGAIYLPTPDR
Chain of MR1 (P61769 21-119 partner): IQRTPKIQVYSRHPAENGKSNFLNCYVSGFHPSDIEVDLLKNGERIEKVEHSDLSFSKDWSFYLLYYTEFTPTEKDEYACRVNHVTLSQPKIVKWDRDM

## O=CC=Nc1c(NC[C@H](O)[C@H](O)[C@H](O)CO)[nH]c(=O)[nH]c1=O [5-OE-RU, 5-(2-oxoethylideneamino)-6-D-ribitylaminouracil]
hpMR1
  presence among ligands eluted from hpMR1 preparations: not found in these hpMR1 preparations

## Nc1nc2ncc(C=O)nc2c(=O)[nH]1 [6-FP]
MR1T cell clone D426 G11 [1]
  antagonism of MR1T activation: antagonizes MR1T activation

## Cc1cc2c(=O)[nH]c(=O)[nH]c2nc1C [DZ, 6,7-dimethyl-5-deazalumazine]
MR1
  binding to MR1 / MR1 ligand: binds MR1
MR1T clones
  ability to stimulate MR1T clones (MR1T cell activation): activates MR1 restricted T cells

## O=c1nc2n(C[C@H](O)[C@H](O)[C@H](O)CO)c3cc(O)ccc3cc-2c(=O)[nH]1 [FO]
MR1
  binding to MR1 / MR1 ligand: binds MR1; also recorded: confirmed these molecules as novel MR1 ligands
MR1T cell clone D426 G11 [2]
  blocking of MR1T clone response to Msm-sup (MAIT cell activation): blocks the activation of MAIT cells; also recorded: blocked the MR1T clone response to Msm-sup
MR1T cell clone D426 G11 [2]; pre-incubation of APC, response to Msm-sup
  antagonist potency relative to riboflavin (amount required to reach 50% inhibition): less FO was required to reach 50% inhibition
MR1T clones
  ability to stimulate MR1T clones (MR1T cell activation): Neither riboflavin nor FO was capable of MR1T cell activation

## O=c1nc2n(C[C@H](O)[C@H](O)[C@H](O)CO)c(O)c(-c3c[nH]c4ccccc34)nc-2c(=O)[nH]1 [PLIII]
MR1T clone D426_G11
  IFN-γ response of clone D426_G11: only modest responses
[3]
  recognition by D481_F12 and D481_A9 MR1T cell clones: modest or no recognition
MR1
  binding to MR1 / MR1 ligand: confirmed these molecules as novel MR1 ligands
MR1; listed as Photolumazine III
  binding to MR1 / MR1 ligand: bind MR1
[4]
  response of D462_E4 TRAV12-2 MR1T cell clone: comparable responses to RL-6-Me-7-OH and PLI that were greater than PLIII
MR1T clone D481_C7
  response of clone D481_C7: responded
  IFN-γ response of clone D481_C7: potent activating ligands similar to RL-6,7-diMe
MR1T clones
  ability to stimulate MR1T clones (MR1T cell activation): antigenic
MR1T clones; listed as Photolumazine III
  ability to stimulate MR1T clones (MR1T cell activation): activated MR1 restricted T cells

## O=C(O)CCc1nc2c(=O)[nH]c(=O)nc-2n(C[C@H](O)[C@H](O)[C@H](O)CO)c1O [PLI]
MR1T clone D426_G11
  IFN-γ response of clone D426_G11: only modest responses
[3]
  recognition by D481_F12 and D481_A9 MR1T cell clones: modest or no recognition
MR1
  binding to MR1 / MR1 ligand: confirmed these molecules as novel MR1 ligands
MR1; listed as Photolumazine I
  binding to MR1 / MR1 ligand: bind MR1
[4]
  response of D462_E4 TRAV12-2 MR1T cell clone: comparable responses to RL-6-Me-7-OH and PLI that were greater than PLIII
MR1T clone D481_C7
  response of clone D481_C7: responded
  IFN-γ response of clone D481_C7: potent activating ligands similar to RL-6,7-diMe
hpMR1
  presence among ligands eluted from hpMR1 preparations: unique to hpMR1+MS
MR1T clones
  ability to stimulate MR1T clones (MR1T cell activation): antigenic
MR1T clones; listed as Photolumazine I
  ability to stimulate MR1T clones (MR1T cell activation): activated MR1 restricted T cells

## Cc1nc2c(=O)[nH]c(=O)nc-2n(C[C@H](O)[C@H](O)[C@H](O)CO)c1C [RL-6,7-diMe, reference compound]
[3]
  recognition by D481_F12 and D481_A9 MR1T cell clones: responded
[4]
  response of D462_E4 TRAV12-2 MR1T cell clone: did not respond
MR1T clone D481_C7
  response of clone D481_C7: responded
hpMR1
  presence among ligands eluted from hpMR1 preparations: not found in these hpMR1 preparations

## Cc1nc2c(=O)[nH]c(=O)nc-2n(C[C@H](O)[C@H](O)[C@H](O)CO)c1O [RL-6-Me-7-OH, reference compound]
[3]
  recognition by D481_F12 and D481_A9 MR1T cell clones: modest or no recognition
[4]
  response of D462_E4 TRAV12-2 MR1T cell clone: comparable responses to RL-6-Me-7-OH and PLI that were greater than PLIII
MR1T clone D481_C7
  response of clone D481_C7: responded

## Cc1cc2nc3c(=O)[nH]c(=O)nc-3n(C[C@H](O)[C@H](O)[C@H](O)CO)c2cc1C [riboflavin, reference compound]
MR1
  binding to MR1 / MR1 ligand: confirmed these molecules as novel MR1 ligands
MR1T cell clone D426 G11 [2]
  blocking of MR1T clone response to Msm-sup (MAIT cell activation): blocked the MR1T clone response to Msm-sup
MR1T clones
  ability to stimulate MR1T clones (MR1T cell activation): Neither riboflavin nor FO was capable of MR1T cell activation
